We go through three compounds from patent US20120064219A1, “EXTRUDED PARTICLES” (Firmenich SA, priority 2009, published 2012).

Each structure is given as a SMILES string. Peptide text beside a SMILES is read from it.

The nature of this series: LC-MS analysis of saliva samples of panelists chewing the gums. Format: in vivo. The protocol: 3 panelists were given various samples of chewing gum prepared above and instructed to chew the gums for 60 minutes. At various intervals, a saliva sample was taken from each panelist, diluted 50 times in water and then analysed by standard LC-MS to confirm the amount of sweetening component remaining in the mouth.

The mark [1] stands for this setting: encapsulated form in chewing gum.

With `CC1=CC(=O)[N-]S(=O)(=O)O1.[K+]` [Acesulfame K], for the setting “chewing gum, saliva”, the “effect of encapsulation on the release profile compared to the unencapsulated form” value is recorded as “little effect”.

Take `COC(=O)[C@H](Cc1ccccc1)NC(=O)[C@@H](N)CC(=O)O` [aspartame] (H-Asp-Phe-OMe): the “release profile in saliva (in words)” value under setting [1] is given as “releasing at a surprisingly stable rate for up to 40 minutes”.

In the case of `OC[C@H]1O[C@H](O[C@]2(CCl)O[C@H](CCl)[C@@H](O)[C@@H]2O)[C@H](O)[C@@H](O)[C@H]1Cl` [sucralose], the “release profile in saliva (in words)” value is, setting by setting: under setting [1], “remains remarkably stable for at least until 20 minutes”; (unencapsulated form in chewing gum) “diminishes rapidly almost immediately”.
